# Test results as given in patent US10294202B2, “Pyrrolidinones as herbicides” (FMC Corporation, priority 2013, dated 2019).
# Columns and labels:
# wheat (winter wheat) = assay: Test C pre-/postemergence herbicide test; format: in vivo, Triticum aestivum; conditions: Preemergence; for Plant response rating (scale of 0 to 100), Wheat: 250 g ai/ha
# Description: (§1) Seeds of plant species selected from blackgrass (Alopecurus myosuroides), ryegrass, Italian (Italian ryegrass, Lolium multiflorum), wheat (winter wheat, Triticum aestivum), galium (catchweed bedstraw, Galium aparine), corn (Zea mays), crabgrass, large (large crabgrass, Digitaria sanguinalis), foxtail, giant (giant foxtail, Setaria faberii), johnsongrass (Sorghum halepense), lambsquarters (Chenopodium album), morningglory (Ipomoea coccinea), nutsedge, yellow (yellow nutsedge, Cyperus esculentus), pigweed (Amaranthus retroflexus), ragweed (common ragweed, Ambrosia elatior), soybean (Glycine max), barnyardgrass (Echinochloa crus-galli), oilseed rape (Brassica napus), waterhemp (common waterhemp, Amaranthus rudis), kochia (Kochia scoparia), oat, wild (wild oat, Avena fatua), surinam grass (Brachiaria decumbens), foxtail, green (green foxtail, Setaria viridis), goosegrass (Eleusine indica), bromegrass, downy (downy bromegrass, Bromus tectorum), nightshade (eastern black nightshade, Solanum ptycanthum), cocklebur (common cocklebur, Xanthium strumarium), cupgrass, woolly (woolly cupgrass, Eriochloa villosa), bermudagrass (Cynodon dactylon), sunflower, (common oilseed sunflower, Helianthus annuus), Russian thistle (Salsola kali) and velvetleaf (Abutilon theophrasti) were planted into a blend of loam soil and sand and treated preemergence with test chemicals formulated in a non-phytotoxic solvent mixture which included a surfactant. At the same time, plants selected from these crop and weed species and also barley (winter barley, Hordeum vulgare), […]), chickweed (common chickweed, Stellaria media), deadnettle (henbit deadnettle, Lamium amplexicaule), and canarygrass (littleseed canarygrass, Phalaris minor) were planted in pots containing Redi-Earth® planting medium (Scotts Company, 14111 Scottslawn Road, Marysville, Ohio 43041) comprising spaghnum peat moss, vermiculite, wetting agent and starter nutrients and treated with postemergence applications of test chemicals formulated in the same manner. Plants ranged in height from 2 to 18 cm (1- to 4-leaf stage) for postemergence treatments. Treated plants and controls were maintained in a greenhouse for 13 to 15 days, after which time all species were compared to controls and visually evaluated. Plant response ratings, summarized in Table C, are based on a scale of 0 to 100 where 0 is no effect and 100 is complete control. A dash (-) response means no test result.
# pigweed = assay: Test A pre-/postemergence herbicide test; format: in vivo, Amaranthus retroflexus
# In short: (§2)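 Planted in loam–sand blend; treated the same day preemergence by directed soil spray, while separately grown plants at one- to two-leaf stage got postemergence spray. Compared visually with untreated controls after approximately 10 days; 100 means complete control.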
# sedge, umbrella = assay: Test B flooded paddy test; format: in vivo, Cyperus difformis; conditions: Flood, scale of 0 to 100 where 0 is no effect and 100 is complete control
# In short: (§3)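 Plants were grown to the 2-leaf stage, then pots were flooded to 3 cm above the soil and compound was applied directly into the paddy water, with that depth held throughout. After 13 to 15 days in a greenhouse, injury was rated visually against untreated controls on a 0 to 100 scale (100 = complete control).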
# corn = assay: Test A pre-/postemergence herbicide test; format: in vivo, Zea mays
# In short: as §2
# barnyardgrass = assay: Test B flooded paddy test; format: in vivo, Echinochloa crus-galli; conditions: Flood, scale of 0 to 100 where 0 is no effect and 100 is complete control
# In short: as §3
# rice = assay: Test B flooded paddy test; format: in vivo, Oryza sativa; conditions: Flood, scale of 0 to 100 where 0 is no effect and 100 is complete control
# In short: as §3
# oilseed rape = assay: Test C pre-/postemergence herbicide test; format: in vivo, Brassica napus; conditions: Preemergence; for Plant response rating (scale of 0 to 100), Oilseed Rape: 250 g ai/ha
# Description: as §1
# waterhemp = assay: Test C pre-/postemergence herbicide test; format: in vivo, Amaranthus rudis; conditions: Preemergence; for Plant response rating (scale of 0 to 100), Waterhemp: 250 g ai/ha
# Description: as §1
# wheat = assay: Test A pre-/postemergence herbicide test; format: in vivo, Triticum aestivum
# In short: as §2
# morningglory = assay: Test C pre-/postemergence herbicide test; format: in vivo, Ipomoea coccinea; conditions: Preemergence; for Plant response rating (scale of 0 to 100), Morningglory: 250 g ai/ha
# Description: as §1
# ragweed = assay: Test C pre-/postemergence herbicide test; format: in vivo, Ambrosia elatior; conditions: Preemergence; for Plant response rating (scale of 0 to 100), Ragweed: 250 g ai/ha
# Description: as §1
# [1] = 31 g ai/ha, scale 0 to 100, 0 is no effect and 100 is complete control
# [2] = 125 g ai/ha, scale 0 to 100 (0 no effect, 100 complete control)
# [3] = Postemergence, 125 g ai/ha, 0 to 100 scale, 0 no effect, 100 complete control
# [4] = Postemergence, 500 g ai/ha, 0 to 100 scale (0 no effect, 100 complete control)
# [5] = Preemergence, 125 g ai/ha, visual rating on 0 to 100 scale (0 no effect, 100 complete control)
# [6] = preemergence, 500 g ai/ha, 0 to 100 scale
# [7] = 62 g ai/ha, scale 0 to 100 (0 no effect, 100 complete control)
# [8] = Postemergence, 125 g ai/ha, visual rating on 0 to 100 scale (0 no effect, 100 complete control), approx. 10 days
# [9] = Preemergence, 125 g ai/ha, 0 to 100 scale where 0 is no effect and 100 is complete control
# [10] = preemergence, 500 g ai/ha, 0 to 100 scale, 0 is no effect and 100 is complete control
# [11] = Postemergence, 125 g ai/ha, 0 to 100 scale, 0 is no effect, 100 is complete control
compound,measurement,setting,value
O=C1NCC(c2ccc(F)c(C(F)(F)F)c2)C1C(=O)Nc1cccc(F)c1F (racemic) [Compound 77],Wheat plant response rating,wheat (winter wheat); [1],0
same,"Plant response rating, Wheat","wheat (winter wheat); 62 g ai/ha, scale 0 to 100",55
same,"Plant response rating, Wheat",wheat (winter wheat); [2],80
same,"Plant response rating (scale of 0 to 100), Wheat",wheat (winter wheat),90
same,"Plant response rating, Pigweed",pigweed; [3],40
same,"Plant response rating, Pigweed",pigweed; [4],50
same,Pigweed plant response rating,pigweed; [5],40
same,"Plant response rating, Pigweed",pigweed; [6],70
same,"Plant response rating, Sedge, Umbrella","sedge, umbrella; 250 g ai/ha",0
same,"Plant response rating, Corn",corn; [3],50
same,"Plant response rating, Corn",corn; [4],70
same,Corn plant response rating,corn; [5],0
same,"Plant response rating, Corn",corn; [6],30
same,"Plant response rating, Barnyardgrass",barnyardgrass; 250 g ai/ha,20
same,"Plant response rating, Rice",rice; 250 g ai/ha,10
same,Oilseed Rape plant response rating,oilseed rape; [1],0
same,"Plant response rating, Oilseed Rape","oilseed rape; 62 g ai/ha, scale 0 to 100",30
same,"Plant response rating, Oilseed Rape",oilseed rape; [2],60
same,"Plant response rating (scale of 0 to 100), Oilseed Rape",oilseed rape,85
same,Waterhemp plant response rating,waterhemp; [1],40
same,"Plant response rating, Waterhemp","waterhemp; 62 g ai/ha, scale 0 to 100",40
same,"Plant response rating, Waterhemp",waterhemp; [2],70
same,"Plant response rating (scale of 0 to 100), Waterhemp",waterhemp,85
same,"Plant response rating, Wheat",wheat; [3],50
same,"Plant response rating, Wheat",wheat; [4],60
same,Wheat plant response rating,wheat; [5],0
same,"Plant response rating, Wheat",wheat; [6],30
same,Morningglory plant response rating,morningglory; [1],0
same,"Plant response rating, Morningglory","morningglory; 62 g ai/ha, scale 0 to 100",0
same,"Plant response rating, Morningglory",morningglory; [2],0
same,"Plant response rating (scale of 0 to 100), Morningglory",morningglory,0
O=C1NCC(c2cc(F)cc(F)c2)C1C(=O)Nc1ccccc1Cl (racemic) [Compound 280],Wheat plant response rating,wheat (winter wheat); [1],0
same,Wheat plant response rating,wheat (winter wheat); [7],0
same,"Plant response rating (scale of 0 to 100), Wheat",wheat (winter wheat),0
same,"Plant response rating, Pigweed",pigweed; [8],0
same,"Plant response rating, Pigweed",pigweed; [4],0
same,"Plant response rating, Pigweed",pigweed; [9],0
same,"Plant response rating, Pigweed",pigweed; [10],0
same,"Plant response rating, Sedge, Umbrella","sedge, umbrella; 500 g ai/ha",0
same,"Plant response rating, Corn",corn; [11],0
same,"Plant response rating, Corn",corn; [4],0
same,"Plant response rating, Barnyardgrass",barnyardgrass; 500 g ai/ha,65
same,Ragweed plant response rating,ragweed; [1],0
same,Ragweed plant response rating,ragweed; [7],0
same,"Plant response rating, Ragweed",ragweed; [2],0
same,"Plant response rating (scale of 0 to 100), Ragweed",ragweed,60
same,"Plant response rating, Rice",rice; 500 g ai/ha,0
same,Oilseed Rape plant response rating,oilseed rape; [1],0
same,Oilseed Rape plant response rating,oilseed rape; [7],30
same,"Plant response rating, Oilseed Rape",oilseed rape; [2],0
same,"Plant response rating (scale of 0 to 100), Oilseed Rape",oilseed rape,0
same,Waterhemp plant response rating,waterhemp; [1],0
same,Waterhemp plant response rating,waterhemp; [7],65
same,"Plant response rating, Waterhemp",waterhemp; [2],75
same,"Plant response rating (scale of 0 to 100), Waterhemp",waterhemp,35
same,"Plant response rating, Wheat",wheat; [8],0
same,"Plant response rating, Wheat",wheat; [4],0
same,Morningglory plant response rating,morningglory; [1],10
same,Morningglory plant response rating,morningglory; [7],25
same,"Plant response rating, Morningglory",morningglory; [2],0
same,"Plant response rating (scale of 0 to 100), Morningglory",morningglory,30
O=C1NCC(c2ccc(OC(F)F)cc2)C1C(=O)Nc1cccc(F)c1F (racemic) [Compound 350],Wheat plant response rating,wheat (winter wheat); [7],0
same,"Plant response rating, Wheat","wheat (winter wheat); 125 g ai/ha, scale 0 to 100",0
same,"Plant response rating, Wheat","wheat (winter wheat); 31 g ai/ha, scale 0 to 100",0
same,"Plant response rating, Pigweed",pigweed; [8],20
same,"Plant response rating, Pigweed",pigweed; [9],50
same,Pigweed plant response rating,"pigweed; Preemergence, 500 g ai/ha, visual rating on 0 to 100 scale (0 no effect, 100 complete control)",80
same,"Plant response rating, Sedge, Umbrella","sedge, umbrella; 500 g ai/ha",0
same,"Plant response rating, Corn",corn; [8],20
same,"Plant response rating, Corn",corn; [4],40
same,"Plant response rating, Barnyardgrass",barnyardgrass; 500 g ai/ha,60
same,Ragweed plant response rating,ragweed; [7],0
same,"Plant response rating, Ragweed","ragweed; 125 g ai/ha, scale 0 to 100",5
same,"Plant response rating, Ragweed","ragweed; 31 g ai/ha, scale 0 to 100",0
same,"Plant response rating, Rice",rice; 500 g ai/ha,0
same,Oilseed Rape plant response rating,oilseed rape; [7],70
same,"Plant response rating, Oilseed Rape","oilseed rape; 125 g ai/ha, scale 0 to 100",80
same,"Plant response rating (scale of 0 to 100), Oilseed Rape",oilseed rape,85
same,"Plant response rating, Oilseed Rape","oilseed rape; 31 g ai/ha, scale 0 to 100",5
same,Waterhemp plant response rating,waterhemp; [7],50
same,"Plant response rating, Waterhemp","waterhemp; 125 g ai/ha, scale 0 to 100",90
same,"Plant response rating, Waterhemp","waterhemp; 31 g ai/ha, scale 0 to 100",0
same,"Plant response rating, Wheat",wheat; [8],20
same,Morningglory plant response rating,morningglory; [7],100
same,"Plant response rating, Morningglory","morningglory; 125 g ai/ha, scale 0 to 100",100
same,"Plant response rating (scale of 0 to 100), Morningglory",morningglory,100
same,"Plant response rating, Morningglory","morningglory; 31 g ai/ha, scale 0 to 100",100
O=C1NCC(c2ccc(Cl)cc2)C1C(=O)Nc1cccc(F)c1F (stereo not shown) [Compound 218],Wheat plant response rating,wheat (winter wheat); [1],0
same,Wheat plant response rating,wheat (winter wheat); [7],0
same,"Plant response rating, Wheat",wheat (winter wheat); [2],0
same,"Plant response rating (scale of 0 to 100), Wheat",wheat (winter wheat),10
same,"Plant response rating, Pigweed","pigweed; 125 g ai/ha, visual rating, 0 to 100 scale, 0 no effect, 100 complete control, approximately 10 days, preemergence",30
same,"Plant response rating, Pigweed",pigweed; [11],0
same,"Pigweed plant response rating (0 to 100 scale, 0 is no effect, 100 is complete control)","pigweed; Postemergence, 500 g ai/ha",40
same,"Plant response rating, Pigweed",pigweed; [10],70
same,"Plant response rating, Sedge, Umbrella","sedge, umbrella; 500 g ai/ha",0
same,"Plant response rating, Corn",corn; [11],20
same,"Corn plant response rating (0 to 100 scale, 0 is no effect, 100 is complete control)","corn; Postemergence, 500 g ai/ha",30
same,"Plant response rating, Barnyardgrass",barnyardgrass; 500 g ai/ha,70
same,Ragweed plant response rating,ragweed; [1],40
same,Ragweed plant response rating,ragweed; [7],35
same,"Plant response rating, Ragweed",ragweed; [2],50
same,"Plant response rating (scale of 0 to 100), Ragweed",ragweed,85
same,"Plant response rating, Rice",rice; 500 g ai/ha,0
same,Oilseed Rape plant response rating,oilseed rape; [1],0
same,Oilseed Rape plant response rating,oilseed rape; [7],60
same,"Plant response rating, Oilseed Rape",oilseed rape; [2],20
same,"Plant response rating (scale of 0 to 100), Oilseed Rape",oilseed rape,70
same,Waterhemp plant response rating,waterhemp; [1],30
same,Waterhemp plant response rating,waterhemp; [7],75
same,"Plant response rating, Waterhemp",waterhemp; [2],90
same,"Plant response rating (scale of 0 to 100), Waterhemp",waterhemp,90
same,"Plant response rating, Wheat",wheat; [11],20
same,"Wheat plant response rating (0 to 100 scale, 0 is no effect, 100 is complete control)","wheat; Postemergence, 500 g ai/ha",50
same,Morningglory plant response rating,morningglory; [1],0
same,Morningglory plant response rating,morningglory; [7],0
same,"Plant response rating, Morningglory",morningglory; [2],25
same,"Plant response rating (scale of 0 to 100), Morningglory",morningglory,20
